Converted amounts (≈) assume the structure as drawn. The source made the active and inactive calls. The calls are words filed in the database; no cut-off is given here.
Legend:
[1] = test system: Panel NCI-60 (60 carcinoma cell lines); experiment: Cytotoxicity against human Panel NCI-60 (60 carcinoma cell lines) cells assessed as reduction in cell viability; type: functional
[2] = target: T1, Polyunsaturated fatty acid 5-lipoxygenase (Homo sapiens) (UniProt P09917); experiment: Binding affinity to 5-LOX (unknown origin)
T1 sequence (whole entry): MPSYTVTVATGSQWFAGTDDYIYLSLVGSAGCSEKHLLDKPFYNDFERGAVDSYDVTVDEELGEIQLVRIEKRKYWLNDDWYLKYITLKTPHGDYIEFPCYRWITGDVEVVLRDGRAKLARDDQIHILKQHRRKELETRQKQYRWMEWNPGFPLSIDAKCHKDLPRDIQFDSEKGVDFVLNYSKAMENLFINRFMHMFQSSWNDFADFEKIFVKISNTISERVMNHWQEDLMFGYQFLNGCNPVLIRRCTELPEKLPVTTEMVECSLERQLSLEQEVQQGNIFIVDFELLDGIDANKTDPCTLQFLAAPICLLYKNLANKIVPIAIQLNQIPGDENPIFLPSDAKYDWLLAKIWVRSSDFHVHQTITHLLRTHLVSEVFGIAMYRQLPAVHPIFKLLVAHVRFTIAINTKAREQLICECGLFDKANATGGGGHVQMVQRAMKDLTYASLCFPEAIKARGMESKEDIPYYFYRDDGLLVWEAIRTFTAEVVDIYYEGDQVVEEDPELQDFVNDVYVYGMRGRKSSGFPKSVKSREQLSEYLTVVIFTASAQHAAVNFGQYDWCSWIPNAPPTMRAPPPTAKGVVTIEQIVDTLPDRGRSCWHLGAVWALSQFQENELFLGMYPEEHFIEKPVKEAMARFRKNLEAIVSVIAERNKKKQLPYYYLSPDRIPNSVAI

[3] = target: T2, Polyunsaturated fatty acid 5-lipoxygenase (Homo sapiens, UniProt P09917); experiment: Inhibition of 5-LOX (unknown orgin) using arachidonic acid as substrate incubated for 10 mins by colorimetric assay
T2 sequence (P09917 whole entry): T1 sequence (whole entry)

[4] = Stability of compound in human plasma assessed as drug degradation at 37 degC measured after 90 mins by LC-MS analysis; type: ADME, cell-free; details: read-out: Drug degradation
Albumin = Albumin (Homo sapiens, UniProt P02768); experiment: Binding affinity to human serum albumin in phosphate buffer at pH 7.4 incubated at 298 K
[5] = target: T1, Polyunsaturated fatty acid 5-lipoxygenase (Homo sapiens); experiment: Competitive inhibition of 5-LOX (unknown origin) using arachidonic acid as substrate by Michaelis-Menten equation based kinetic analysis
[6] = Solubility of the compound in PBS buffer by UV spectrum based solubility assay; type: physicochemical
[7] = Half life in human liver microsome by LC-MS/MS analysis; type: ADME; details: liver microsomes

Albumin, sequence (P02768 whole entry): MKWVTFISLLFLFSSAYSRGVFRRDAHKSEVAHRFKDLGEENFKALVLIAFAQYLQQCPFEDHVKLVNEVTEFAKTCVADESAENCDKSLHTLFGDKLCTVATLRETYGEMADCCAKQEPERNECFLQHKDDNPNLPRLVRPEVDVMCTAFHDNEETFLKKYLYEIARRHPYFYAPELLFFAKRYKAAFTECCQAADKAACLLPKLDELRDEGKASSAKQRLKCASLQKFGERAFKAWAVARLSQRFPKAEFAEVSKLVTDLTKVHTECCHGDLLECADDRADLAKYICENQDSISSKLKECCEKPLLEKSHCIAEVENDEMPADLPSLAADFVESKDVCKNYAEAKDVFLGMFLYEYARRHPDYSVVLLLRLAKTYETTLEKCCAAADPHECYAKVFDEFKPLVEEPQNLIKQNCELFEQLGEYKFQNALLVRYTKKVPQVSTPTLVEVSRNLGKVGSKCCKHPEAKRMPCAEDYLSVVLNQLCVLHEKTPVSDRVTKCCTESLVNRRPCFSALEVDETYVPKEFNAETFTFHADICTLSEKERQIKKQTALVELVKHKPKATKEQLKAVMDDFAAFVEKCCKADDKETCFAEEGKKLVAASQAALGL

SMILES: CCOC(=O)Cn1cccc1CC1c2ccccc2N(c2c(Cl)cccc2Cl)C1O (stereo not drawn)
- LC50 (concentration killing 50% of cells) [1]: > 100000 nM
- K [2]: 1.7 10^8/M
- IC50 [3]: 1310 nM
- metabolised at 1.5 h [4]: 4%
- K (Albumin): 1.4 10^4/M

SMILES: O=C(O)Cn1cccc1Cc1c(O)n(-c2c(Cl)cccc2Cl)c2ccccc12
- LC50 (concentration killing 50% of cells) [1]: > 100000 nM
- K [2]: 4.9 10^8/M
- IC50 [3]: 430 nM
- metabolised at 1.5 h [4]: 4%
- K (Albumin): 1.4 10^4/M

SMILES: O=C1C(Cc2c[nH]c3ccccc23)c2ccccc2N1c1c(Cl)cccc1Cl (stereo not drawn)
- LC50 (concentration killing 50% of cells) [1]: > 100000 nM
- K [2]: 4.2 10^8/M
- IC50 [3]: 310 nM
- metabolised at 1.5 h [4]: 4%
- K (Albumin): 1.1 10^3/M

SMILES: C#CCn1cccc1CC1c2ccccc2N(c2c(Cl)cccc2Cl)C1O (stereo not drawn)
- LC50 (concentration killing 50% of cells) [1]: > 100000 nM
- K [2]: 0.9 10^8/M
- IC50 [3]: 250 nM
- metabolised at 1.5 h [4]: 4%
- K (Albumin): 4.1 10^4/M

SMILES: O=C(O)Cn1cc(Cc2c(O)n(-c3c(Cl)cccc3Cl)c3ccccc23)c2ccccc21
- LC50 (concentration killing 50% of cells) [1]: > 100000 nM
- K [2]: 2.5 10^8/M
- IC50 [3]: 1230 nM
- metabolised at 1.5 h [4]: 4%
- K (Albumin): 5.2 10^4/M

SMILES: C#CCn1cc(Cc2c(O)n(-c3c(Cl)cccc3Cl)c3ccccc23)c2ccccc21
- LC50 (concentration killing 50% of cells) [1]: > 100000 nM
- K [2]: 3.1 10^8/M
- IC50 [3]: > 10000 nM
- metabolised at 1.5 h [4]: 4%
- K (Albumin): 1.1 10^4/M

SMILES: C=CCn1cc(Cc2c(O)n(-c3c(Cl)cccc3Cl)c3ccccc23)c2ccccc21
- LC50 (concentration killing 50% of cells) [1]: > 100000 nM
- K [2]: 1.8 10^8/M
- IC50 [3]: 70 nM
- metabolised at 1.5 h [4]: 4%
- K (Albumin): 7.6 10^2/M

SMILES: CCOC(=O)Cn1cc(Cc2c(O)n(-c3c(Cl)cccc3Cl)c3ccccc23)c2ccccc21
- LC50 (concentration killing 50% of cells) [1]: > 100000 nM
- K [2]: 4.5 10^8/M
- IC50 [3]: 630 nM
- metabolised at 1.5 h [4]: 4%
- K (Albumin): 2.7 10^3/M

SMILES: Oc1c(Cc2cn(Cc3ccccc3)c3ccccc23)c2ccccc2n1-c1c(Cl)cccc1Cl
- LC50 (concentration killing 50% of cells) [1]: > 100000 nM
- K [2]: 0.8 10^8/M
- IC50 [3]: 100 nM
- metabolised at 1.5 h [4]: 4%
- K (Albumin): 1.4 10^4/M

SMILES: O=C1C(Cc2cccn2Cc2ccccc2)c2ccccc2N1c1c(Cl)cccc1Cl (stereo not drawn)
- LC50 (concentration killing 50% of cells) [1]: > 100000 nM
- K [2]: 2.4 10^8/M
- IC50 [3]: 490 nM
- metabolised at 1.5 h [4]: 4%
- K (Albumin): 1.2 10^4/M

SMILES: COc1cc(CC2C(=O)N(c3c(Cl)cccc3Cl)c3ccccc32)cc(OC)c1OC (stereo not drawn)
- LC50 (concentration killing 50% of cells) [1]: > 100000 nM
- K [2]: 0.9 10^8/M
- IC50 [3]: 260 nM
- metabolised at 1.5 h [4]: 4%
- K (Albumin): 6.9 10^4/M

SMILES: C=CCn1cccc1CC1C(=O)N(c2c(Cl)cccc2Cl)c2ccccc21 (stereo not drawn)
- LC50 (concentration killing 50% of cells) [1]: > 100000 nM
- K [2]: 1.4 10^8/M
- IC50 [3]: 1770 nM
- metabolised at 1.5 h [4]: 4%
- K (Albumin): 1.7 10^4/M

SMILES: O=C1C(Cc2ccc[nH]2)c2ccccc2N1c1c(Cl)cccc1Cl (stereo not drawn)
- inhibition [5]: Active
- LC50 (concentration killing 50% of cells) [1]: > 100000 nM
- K [2]: 1.1 10^8/M
- IC50 [3]: 30 nM
- metabolised at 1.5 h [4]: 4%
- solubility [6]: 26 µM (≈ 9.29 µg/mL)
- K (Albumin): 3.8 10^4/M
- half-life [7]: 1.5 h

From ChEMBL document CHEMBL5365422 (Bioorg Med Chem Lett, 2023)
